“And” between values parts separate entries of the source, which are not always exact repeats. Equal values may be shown once.
How the values were obtained:
[1] = system: EDG-1; test: Phosphorylation of endogenous EDG-1 in 32P-labeled HUVEC; assay type: cell-based, human; settings: S1P 5-60 min
Description: (Upper panel) Normal HUVEC cells were labelled with [^32P]-orthophosphate, and stimulated with 100 nM S1P for indicated times. Cell extracts were immunoprecipitated with the affinity-purifed anti-EDG-1 IgY, separated on a SDS-PAGE and autoradiographed. (Middle panel) Some cells were treated with 10 μM LY294002 or 100 nM Wortmannin prior to stimulation with S1P and EDG-1 phosphorylation was examined as above. (Lower panel) Some cells were transduced with 100 MOI of wild-type (wt)-Akt, dominant negative (dn)-Akt or the β-gal virus for 12 h prior to stimulation with S1P. EDG-1 phosphorylation was examined as above.
(§1) To label the EDG-1 receptor in HUVEC and HEK293EDG-1 cells, they were pre-incubated in phosphate-free DMEM (GIBCO-BRL) for 2 hr. Subsequently, cells were labeled with [^32P] orthophosphate (80 μCl/ml) for 3 hr. To examine the effect of P1-3 kinase, cultures were treated with wortmannin (100 nM) or LY294002 (10 μM) during tine last hour of labeling. After SPP stimulation, ^32P-labeled EDG-1 receptor was immunoprecipitated with either chicken anti-EDG-1 1gY or anti-M2, resolved on SDS-PAGE, and visualized by autoradiography.
Chicken anti-human EDG-1 antibodies against human EDG-1 polypeptide expressed in E. coli were raised in Aves Labs, Tigard, Oreg. This antibody specifically detected EDG-1 polypeptide in HUVEC cells and transfected HEK293 cells. […]

[2] = system: HUVEC; test: Actin cytoskeleton (stress fibers, cortical actin) in HUVEC, phalloidin staining; assay type: cell-based, human; settings: 500 nM SPP, 30 minutes
Description: SPP is known to induce Rho-dependent actin stress fibers in NIH3T3 fibroblasts. To disclose Rho- or Rac-dependence, HUVEC were plated at 2×10^5 cells in 35 mm glass bottom petri dishes (Plastek cultureware, Mat Tek Corporation, Ashland Mass.). Two days later, recently confluent cells were washed and changed to medium M199 supplemented with 10% dialyzed charcoal-stripped fetal bovine serum (CFBS) and growth factors for 16 hours. Approximately 500-800 cells were then microinjected cytoplasmically with Rho inhibitor C3 exoenzyme (0.1 μg/μL, Calbiochem) or dominant negative N17Rac protein (0.35 μg/μl; Ridley, A., et al., Cell 70: 401-410 (1992)) using Femtotips (Eppendorf) at 100 hPa/0.2 sec. Injected cells were marked by coinjection of FITC-rabbit IgG (5 mg/mL, Cappel).
Subsequently, cells were treated with or without SPP. After treatment cells were washed with ice-cold PBS, fixed with 4% formaldehyde at room temperature or methanol at −20° C. for 15 minutes. In the case of formaldehyde fixation, cells were permeabilized with 0.2% Triton X-100 (TX-100). Actin microfilaments were visualized by staining with either FTOC- or TRITC-conjugated phalloidin (0.05 μg/mL, Sigma) for 30 minutes at room temperature.

[3] = system: EDG-1; test: EDG-1 phosphorylation in 32P-labeled HEK293EDG-1 cells; assay type: cell-based; settings: 100 nM S1P
Description: FIG. 26 is an SDS PAGE showing that S1P treatment induces EDG-1 phosphorylation. HEK293EDG-1 were labeled with [^32P]-orthophosphate, and stimulated with 100 nM S1P for indicated times. Some cultures were treated with 10 μM LY294002.
as §1

[4] = biological target: EDG-1 (Homo sapiens, UniProt P21453); settings: 32P-SPP, HEK293EDG-1 cells; read-out: dissociation constant, Kd, of SPP binding to EDG-1; cited from earlier work
Chain of EDG-1 (Homo sapiens, UniProt P21453) (P21453 whole entry): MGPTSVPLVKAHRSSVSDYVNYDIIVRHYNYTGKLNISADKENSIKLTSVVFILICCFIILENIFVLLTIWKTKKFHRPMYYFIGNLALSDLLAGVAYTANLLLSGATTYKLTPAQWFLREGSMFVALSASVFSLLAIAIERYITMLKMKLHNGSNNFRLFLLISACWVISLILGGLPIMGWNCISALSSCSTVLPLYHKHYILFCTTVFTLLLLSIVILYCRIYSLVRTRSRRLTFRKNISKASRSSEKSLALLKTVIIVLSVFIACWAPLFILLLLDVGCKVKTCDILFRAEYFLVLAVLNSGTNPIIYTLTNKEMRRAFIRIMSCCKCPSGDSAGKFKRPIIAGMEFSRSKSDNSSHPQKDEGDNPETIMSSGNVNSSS

[5] = system: ERK-2; test: ERK-2 immune complex kinase assay in HUVEC; assay type: cell-based, human; settings: SPP 10-500 nM, 10 minutes, starved HUVEC
Description: As a second functional assay, ERK-2 kinase activity was measured in response to SPP treatment. For these experiments, endothelial cells were starved for 19 hours, and then stimulated with SPP for 10 minutes. Cells were then lysed, and ERK-2 kinase activity was measured by an immune complex kinase assay using myelin basic protein (MBP) as substrate. Some cells were pretreated with pertussis toxin (PTx) at 200 ng/mL, or PD98059 at 10 μM for 2 hours prior to stimulation.

## CCCCCCCCCCCCC/C=C/[C@@H](O)[C@@H](N)COP(=O)(O)O [SPP, sphingosine-1-phosphate]
[1]
  radiolabeling of the endogenous EDG-1 polypeptide: increased
[2]
  formation of stress fibers and cortical actin: induced the formation of stress fibers
[3]
  phosphorylation of EDG-1: induced a time-dependent phosphorylation
[4]
  Kd: 8.1 nM and 8 nM
[5]
  ERK activity: activated ERK activity in a dose-dependent manner

From patent US20020142982A1, “Method for regulating angiogenesis” (priority 1999, published 2002)
